Our source for the IC50 values is patent EP4803519A1, “NOVEL PRMT5 INHIBITOR AND USE THEREOF” (Shanghai Apeiron Therapeutics Company Limited, priority 2023, dated 2025).

Molecules are shown by their SMILES.

In test [1] the test system is LU99 MTAP(-/-)deleted cells. As to the kind of experiment: Inhibitory activity on proliferation of LU99 MTAP(-/-)deleted cells (Cell-Titer Glo). The note with it: Homo sapiens, Lu-99, 144 h, incubated 6 d, 0-1,000 nM. Format: cell-based. The protocol: Materials and cells: LU99 MTAP deleted cell line was purchased from Kyinno Biotechnology (China); cell culture medium and fetal bovine serum were purchased from Thermo Fisher Scientific (USA); 384-well plates were purchased from PerkinElmer (USA); Cell-Titer Glo kits were purchased from Promega (USA).
Cell culture: LU99 MTAP(-/-)deleted cells were cultured with medium containing 10% fetal bovine serum at 37°C in 5% carbon dioxide. Only cells in the logarithmic growth phase could be used for the test.
(§1) Test of inhibitory activity on cell proliferation: The Cell-Titer Glo kit was used to test the proliferation inhibitory activity of the compounds on LU99 MTAP(-/-)deleted cells. The cell concentration was adjusted, rendering that cells were inoculated into a 384-well plate at 40 µL per well and incubated overnight at 37°C and 5% carbon dioxide. 40 nL of the compound was added to each well to reach a final concentration of 0-1,000 nM (starting concentration 1,000 nM, 2.5-fold dilution, 10 points), and the cell plate with 0.2% DMSO content was incubated at 37°C and 5% carbon dioxide for 6 d. 40 µL of Cell-Titer Glo reagent was added to test cell viability.

The test system of test [2] is LU99 MTAP overexpressing cells. Nature of the test: Inhibitory activity on proliferation of LU99 MTAP overexpressing cells (Cell-Titer Glo). It is filed as cell-based. The settings on record: Homo sapiens, Lu-99, 144 h, incubated 6 d, 0-10,000 nM. The protocol:
Materials and cells: LU99 MTAP overexpressing cell line was purchased from Kyinno Biotechnology (China); cell culture medium and fetal bovine serum were purchased from Thermo Fisher Scientific (USA); 384-well plates were purchased from PerkinElmer (USA); Cell-Titer Glo kits were purchased from Promega (USA).
Cell culture: LU99 MTAP overexpressing cells were cultured with medium containing 10% fetal bovine serum at 37°C in 5% carbon dioxide. Only cells in the logarithmic growth phase could be used for the test.
as §1, with “MTAP overexpressing” for “MTAP(-/-)deleted”, “0-10,000” for “0-1,000”, “10,000” for “1,000”

By IC50 is commonly meant the concentration that gives 50% inhibition. High values mean a need for much substance, low ones inhibition by little substance.

On to `CN(C(=O)c1ccc2nc(N)c3cnn(C)c3c2c1)[C@@H]1COC(C)(C)c2cc(N3CCS(=O)(=O)CC3)ccc21` [Example 78, […]], for which the figures for the IC50 in test [1] and in test [2] were 17 nM and 3740 nM, respectively.

With `CN(C(=O)c1cc2c(cn1)nc(N)c1cnn(C)c12)C1COC(C)(C)c2cc(C(F)(F)F)ncc21` (centres unmarked) [Example 79, 4-Amino-N-(1,1-dimethyl-7-(trifluoromethyl)-3,4-dihydro-1H-pyrano[4,3-c]pyridin-4-yl)-N,1-dimethyl-1H-pyrazolo[4,3-c][1,7]naphthyridine-8-carboxamide], the IC50 worked out at 41.9 nM in test [1] and 4380 nM in test [2].

Turning to `CN(C(=O)c1ccc2nc(N)c3cnn(C)c3c2c1)[C@@H]1COC(C)(C)c2cc(N3CC4CCC(C3)O4)ccc21` [Example 85, N-[(4S)-1,1-dimethyl-7-(8-oxa-3-azabicyclo[3.2.1]octan-3-yl)isochroman-4-yl](4-amino-1-methylpyrazolo[4,5-c]quinolin-8-yl)-N-methylformamide], the IC50 in test [1] is 7.1 nM; in test [2], 2140 nM.

With `CN(C(=O)c1ccc2nc(N)c3cnn(C)c3c2c1)[C@@H]1COC2(CCCC2)c2cc(C(F)(F)F)ccc21` [Example 82, (S)-4-amino-N,1-dimethyl-N-(7'-(trifluoromethyl)spiro[cyclopentane-1,1'-isochroman]-4'-yl)-1H-pyrazolo[4,3-c]quinoline-8-carboxamide], the IC50 was 5.9 nM in test [1] and 523 nM in test [2].

Consider `CN(C(=O)c1ccc2nc(N)c3nsnc3c2c1)C1COC2(CCC2)c2cc(C(F)(F)F)ccc21` (centres unmarked) [Example 59, 4-Amino-N-methyl-N-(7'-(trifluoromethyl)spiro[cyclobutane-1,1'-isochroman]-4'-yl)-[1,2,5]thiadiazolo[3,4-c]quinoline-8-carboxamide], for which the IC50 in test [1] amounted to 3140 nM; in test [2], 4020 nM.

As to `CN(C(=O)c1ccc2nc(N)c3nsnc3c2c1)C1COC(C)(C)c2cc(C(F)(F)F)ccc21` (centres unmarked) [Example 60, 4-Amino-N-(1,1-dimethyl-7-(trifluoromethyl)isochroman-4-yl)-N-methyl-[1,2,5]thiadiazolo[3,4-c]quinoline-8-carboxamide], the results for the IC50 in test [1] and in test [2] were above 3000 nM and 2950 nM, respectively.

Turning to `CN(C(=O)c1ccc2nc(N)c3cnn(C)c3c2c1)[C@@H]1COC(C)(C)c2cc(C3CCOCC3)ccc21` [Example 58, (S)-4-amino-N-(1,1-dimethyl-7-(tetrahydro-2H-pyran-4-yl)isochroman-4-yl)-N,1-dimethyl-1H-pyrazolo[4,3-c]quinoline-8-carboxamide], the IC50 in test [1] was found to be 5.5 nM; in test [2], 987 nM.
